Experimental data published in PMC10745882, “Investigation of Drug-Interaction Potential for Arthritis Dietary Supplements: Chondroitin Sulfate, Glucosamine, and Methylsulfonylmethane” (Molecules, 2023).
Read-outs that look alike come from different tables or passages of the source.

How the values were obtained:
[1] = interaction case, co-administration of CS and GCS with warfarin; cited from earlier work
[2] = test system: seven CYP isozymes (CYP1A2, CYP2A6, CYP2B6, CYP2C9, CYP2C19, CYP2D6, CYP3A4); test: CYP inhibition assay in human liver microsomes, statements on all tested isozymes; type: in vitro ADME
Procedure: (§1) For the experimental method, the reference method was used. Briefly, incubation mixtures were composed of 0.5 mg/mL human liver microsomes; varying concentrations of CS in DW (0.1, 0.3, 1, 3, 10, 30, 100, and 200 µM) or MSM in DW (0.1, 0.3, 1, 3, 10, 30, 100, 300, and 1000 µM) or GCS in DMSO (0.1, 0.3, 1, 3, 10, 30, 100, 300, and 1000 µM); a substrate mixture in DMSO (40 µM phenacetin for CYP1A2; 2.5 µM coumarin for CYP2A6; 80 µM bupropion for CYP2B6; 10 µM diclofenac for CYP2C9; 80 µM [±]-mephenytoin for CYP2C19; 5 µM dextromethorphan for CYP2D6; 2.5 µM midazolam and 30 µM testosterone for CYP3A4); and an NADPH generating system (NGS; 0.1 M glucose-6-phosphate, 10 mg/mL β-NADP^+, and 1 U/mL glucose-6-phosphate dehydrogenase) in a total volume of 200 µL potassium phosphate buffer (0.1 M, pH 7.4). The reaction mixture, excluding NGS, underwent pre-incubation at 37 °C for 5 min, followed by further incubation with NGS for 30 min in a water bath. Well-established selective CYP inhibitors were employed as positive controls (40 µM ketoconazole for CYP3A4, 50 µM furafyllin for CYP1A2, 10 µM quinidine for CYP2D6, 125 µM ticlopidine for CYP2C19 and CYP2B6, 10 µM 8-methoxsalen for CYP2A6, and 10 µM sulfaphenazole for CYP2C9). Post incubation, the reaction was halted by adding 50 µL ice-cold 1% formic acid acetonitrile. After centrifugation at 13,200 rpm for 5 min, the supernatant was collected from the sample and subjected to analysis via an LC-MS/MS system. All experiments were performed in triplicate.
For the experimental method, the reference method was used. The LC-MS/MS system utilized in this study consisted of an Agilent 1260 binary pump HPLC system coupled with the Agilent 6460 Triple Quadrupole mass spectrometer (Agilent Technologies, Santa Clara, CA, USA), featuring an electrospray ionization source. Chromatographic separation was achieved using a Fortis C8 column (2.1 × 100 mm, 5.0 µm; Fortis Technologies Ltd., Neston, UK). The HPLC mobile phases comprised (A) 0.1% formic acid and (B) 0.1% formic acid in 90% acetonitrile. […]

[3] = design: method as in doi:10.4172/2155-9600.1000748, PMID 16168682, PMID 19912983; conditions: cited from earlier work
CYP3A4(M) = target: T1, CYP3A4(M) (Homo sapiens, UniProt P08684); test: CYP inhibition assay in human liver microsomes (LC-MS/MS cocktail), midazolam to 1-OH-midazolam; type: in vitro ADME
T1 construct: Pooled human liver microsomes were purchased from BD Gentest; tissue BD Gentest; host or cells: pooled human liver microsomes
Procedure: For the experimental method, the reference method was used. […] The reaction mixture, excluding NGS, underwent pre-incubation at 37 °C for 5 min, followed by further incubation with NGS for 30 min in a water bath. […] Post incubation, the reaction was halted by adding 50 µL ice-cold 1% formic acid acetonitrile. After centrifugation at 13,200 rpm for 5 min, the supernatant was collected from the sample and subjected to analysis via an LC-MS/MS system. All experiments were performed in triplicate.
For the experimental method, the reference method was used. […] The HPLC mobile phases comprised (A) 0.1% formic acid and (B) 0.1% formic acid in 90% acetonitrile. […] The total run time was 11.0 min, and the injection volume was 5 µL. Mass detection was conducted in the positive ion mode using multiple reaction monitoring (MRM). Specific MRM transitions for each analyte are detailed in Table S4.

CYP2C9 = test system: CYP2C9; design: method as in PMID 34821124, PMID 29488228; conditions: previous studies; cited from earlier work
[4] = design: method as in PMID 16942821, PMID 37489348, PMID 31331587; conditions: typical doses as monotherapy; cited from earlier work
CYP2D6 = target: T2, CYP2D6 (Homo sapiens, UniProt P10635); design: method as in PMID 34821124, PMID 29488228; conditions: previous studies; cited from earlier work
T2 construct: Pooled human liver microsomes were purchased from BD Gentest; tissue BD Gentest; host or cells: pooled human liver microsomes

CYPs [5] = conditions: drugs used for OA; ref as in Refs of Table 4, 17-36; cited from earlier work
CYPs [6] = test system: CYPs; design: method as in PMID 33096940; conditions: in vivo mice, after the administration of MSM; cited from earlier work
CYP3A4(T) = target: T3, CYP3A4(T) (Homo sapiens, UniProt P08684); test: CYP inhibition assay in human liver microsomes (LC-MS/MS cocktail), testosterone to 6-β-OH-Testosterone; type: in vitro ADME
T3 construct: Pooled human liver microsomes were purchased from BD Gentest; tissue BD Gentest; host or cells: pooled human liver microsomes
Procedure: as §1
For the experimental method, the reference method was used. The LC-MS/MS system utilized in this study consisted of an Agilent 1260 binary pump HPLC system coupled with the Agilent 6460 Triple Quadrupole mass spectrometer (Agilent Technologies, Santa Clara, CA, USA), featuring an electrospray ionization source. Chromatographic separation was achieved using a Fortis C8 column (2.1 × 100 mm, 5.0 µm; Fortis Technologies Ltd., Neston, UK). The HPLC mobile phases comprised (A) 0.1% formic acid and (B) 0.1% formic acid in 90% acetonitrile. A gradient elution method was employed with an initial solvent B concentration of 15% and a flow rate of 0.25 mL/min. […] The total run time was 11.0 min, and the injection volume was 5 µL. Mass detection was conducted in the positive ion mode using multiple reaction monitoring (MRM). Specific MRM transitions for each analyte are detailed in Table S4.

T1 sequence (P08684 whole entry): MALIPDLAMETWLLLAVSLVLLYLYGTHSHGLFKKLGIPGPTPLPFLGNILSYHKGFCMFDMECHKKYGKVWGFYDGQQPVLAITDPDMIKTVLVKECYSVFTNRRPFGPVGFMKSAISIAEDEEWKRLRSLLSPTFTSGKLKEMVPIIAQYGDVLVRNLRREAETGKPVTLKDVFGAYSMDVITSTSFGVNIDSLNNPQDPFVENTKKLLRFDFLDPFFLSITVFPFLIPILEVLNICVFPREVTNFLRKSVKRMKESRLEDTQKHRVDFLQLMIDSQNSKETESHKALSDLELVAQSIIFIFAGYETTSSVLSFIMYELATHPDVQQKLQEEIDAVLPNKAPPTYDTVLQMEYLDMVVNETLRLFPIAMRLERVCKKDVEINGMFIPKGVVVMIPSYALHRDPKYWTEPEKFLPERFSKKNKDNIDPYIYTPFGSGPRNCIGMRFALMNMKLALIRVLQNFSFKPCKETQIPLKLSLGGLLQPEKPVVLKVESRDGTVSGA
T3 sequence (P08684 whole entry): as above
T2 sequence (P10635 whole entry): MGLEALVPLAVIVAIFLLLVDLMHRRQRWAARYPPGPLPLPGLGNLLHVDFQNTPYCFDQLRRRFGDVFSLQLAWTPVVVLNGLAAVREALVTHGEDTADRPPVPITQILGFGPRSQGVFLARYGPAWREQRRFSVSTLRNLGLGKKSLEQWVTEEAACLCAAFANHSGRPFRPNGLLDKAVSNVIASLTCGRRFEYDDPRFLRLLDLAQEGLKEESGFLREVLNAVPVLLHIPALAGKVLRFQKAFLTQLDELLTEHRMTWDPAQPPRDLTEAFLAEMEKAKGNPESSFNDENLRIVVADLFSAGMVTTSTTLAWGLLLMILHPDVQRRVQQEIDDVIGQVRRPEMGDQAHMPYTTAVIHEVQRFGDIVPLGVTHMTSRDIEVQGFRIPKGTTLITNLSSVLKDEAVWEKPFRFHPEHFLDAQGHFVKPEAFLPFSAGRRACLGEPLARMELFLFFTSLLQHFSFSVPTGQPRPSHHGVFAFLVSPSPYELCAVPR

## Chondroitin sulfate [CS]
[1]
  INR on co-administration with warfarin: elevated INR
[2]
  inhibitory effects on CYP1A2, CYP2A6, CYP2B6, CYP2C9, CYP2C19, CYP2D6, and CYP3A4: no inhibitory effects
[3]; common daily dose 1200 mg/day
  maximum plasma concentrations: approximately 70 µM
CYP3A4(M); test substance 0.1 μM
  Remaining Activities (% of Control, n = 3): 97.6 ± 3.8 % of Control
CYP3A4(M); test substance 0.3 μM
  Remaining Activities (% of Control, n = 3): 99.1 ± 3.1 % of Control
CYP3A4(M); test substance 1 μM
  Remaining Activities (% of Control, n = 3): 91.2 ± 10.6 % of Control
CYP3A4(M); test substance 3 μM
  Remaining Activities (% of Control, n = 3): 87.9 ± 27.9 % of Control
CYP3A4(M); test substance 10 μM
  Remaining Activities (% of Control, n = 3): 101.4 ± 4.9 % of Control
CYP3A4(M); test substance 30 μM
  Remaining Activities (% of Control, n = 3): 106.6 ± 5 % of Control
CYP3A4(M); test substance 100 μM
  Remaining Activities (% of Control, n = 3): 113.6 ± 8.4 % of Control
CYP3A4(M); test substance 200 μM
  Remaining Activities (% of Control, n = 3): 114.6 ± 2.8 % of Control
CYP2C9
  inhibitory effects on CYP2C9: no inhibitory effects
[4]
  adverse effects in clinical trials: do not exhibit significant adverse effects
CYP2D6
  inhibitory effects on CYP2D6: no inhibitory effects

## CCOC(=O)C1(c2ccccc2)CCN(C)CC1 [Pethidine]
CYPs [5]
  Metabolism-Associated CYPs: CYP2B6 (major), CYP3A4 (major), CYP2C19

## Cc1ccc(-c2cc(C(F)(F)F)nn2-c2ccc(S(N)(=O)=O)cc2)cc1 [Celecoxib]
CYPs [5]
  Metabolism-Associated CYPs: CYP2C9 (major), CYP3A4

## O=C(O)Cc1ccccc1Nc1c(Cl)cccc1Cl [Diclofenac]
CYPs [5]
  Metabolism-Associated CYPs: CYP2C8, CYP2C9 (major), CYP2C18, CYP2C19, CYP2B6, CYP3A4

## Cc1cnc(NC(=O)C2=C(O)c3ccccc3S(=O)(=O)N2C)s1 [Meloxicam]
CYPs [5]
  Metabolism-Associated CYPs: CYP2C9 (major), CYP3A4

## CS(C)(=O)=O [MSM, methylsulfonylmethane]
CYPs [6]
  inhibition or induction effects on CYPs (intrahepatic gene expressions): no significant inhibition or induction effects
[2]
  inhibitory effects on CYP1A2, CYP2A6, CYP2B6, CYP2C9, CYP2C19, CYP2D6, and CYP3A4: no inhibitory effects
CYP3A4(T); test substance 0.3 μM
  Remaining Activities (% of Control, n = 3): 95.3 ± 2.9 % of Control
CYP3A4(T); test substance 1 μM
  Remaining Activities (% of Control, n = 3): 98.5 ± 4.2 % of Control
CYP3A4(T); test substance 3 μM
  Remaining Activities (% of Control, n = 3): 95.1 ± 3.5 % of Control
CYP3A4(T); test substance 10 μM
  Remaining Activities (% of Control, n = 3): 98.0 ± 2.4 % of Control
CYP3A4(T); test substance 30 μM
  Remaining Activities (% of Control, n = 3): 95.3 ± 1.7 % of Control
CYP3A4(T); test substance 100 μM
  Remaining Activities (% of Control, n = 3): 90.8 ± 3.4 % of Control
CYP3A4(T); test substance 300 μM
  Remaining Activities (% of Control, n = 3): 95.9 ± 4.2 % of Control
CYP3A4(T); test substance 1000 μM
  Remaining Activities (% of Control, n = 3): 95.2 ± 0.5 % of Control
[3]; common daily dose 2000 mg/day
  maximum plasma concentrations: ~1100 µM
CYP3A4(M); test substance 0.3 μM
  Remaining Activities (% of Control, n = 3): 93.2 ± 13.2 % of Control
CYP3A4(M); test substance 1 μM
  Remaining Activities (% of Control, n = 3): 97.8 ± 4.3 % of Control
CYP3A4(M); test substance 3 μM
  Remaining Activities (% of Control, n = 3): 96.2 ± 4.3 % of Control
CYP3A4(M); test substance 10 μM
  Remaining Activities (% of Control, n = 3): 96.8 ± 4.2 % of Control
CYP3A4(M); test substance 30 μM
  Remaining Activities (% of Control, n = 3): 96.9 ± 7.2 % of Control
CYP3A4(M); test substance 100 μM
  Remaining Activities (% of Control, n = 3): 96.7 ± 6.2 % of Control
CYP3A4(M); test substance 300 μM
  Remaining Activities (% of Control, n = 3): 97.9 ± 4.4 % of Control
CYP3A4(M); test substance 1000 μM
  Remaining Activities (% of Control, n = 3): 99.7 ± 4.1 % of Control
[4]
  adverse effects in clinical trials: do not exhibit significant adverse effects

## CC(C)Cc1ccc(C(C)C(=O)O)cc1 (centres unmarked) [Ibuprofen]
CYPs [5]
  Metabolism-Associated CYPs: CYP2C8 (major) CYP2C9 (major), CYP2C19, CYP3A4

## COc1cccc(C2(O)CCCCC2CN(C)C)c1 (centres unmarked) [Tramadol]
CYPs [5]
  Metabolism-Associated CYPs: CYP2D6 (major), CYP3A4, CYP2B6

## CC(=O)Nc1ccc(O)cc1 [Acetaminophen]
CYPs [5]
  Metabolism-Associated CYPs: CYP3A4 (major), CYP2El, CYP1A2, CYP2D6
